Results from patent US20070049559A1, “Preparations comprising arylazine substituted with a carbonylic moiety to increase the activity of Gelatinase A in ocular cells” (priority 2005, published 2007).

System: MT-MMP
Assay: Thiopeptolide assay of cell-associated gelatinase activity ascribed to MT-MMP in TM cells
Type: cell-based, Rhesus monkey
Conditions: benzathine (as diacetate salt) combined with an equal weight of test compound in the incubation medium
Procedure: Unless specifically noted, all molecules tested were prepared as stock solutions in dimethyl sulfoxide (DMSO) with a final concentration of 10 mg/ml. The stocks were stored in a dessicator at −20 degrees Celsius. In testing the molecules, the molecules were diluted to final concentrations of 0.3 ug/ml and 15 ug/ml in a simplified culture medium based on Ames' medium, called Concanavalin A (Con A) conditioning medium (CACM). The monkey TM cells were incubated with the test molecules for 48 hours.
Control medium of CACM plus DMSO and a positive control with 5 ug/ml Con A plus DMSO were run in parallel. […]
At the end of the incubation period, by means of a spectrophoto-metric plate reader, the optical density (OD) at 410 nm was determined for each well after automatic subtraction of a blank value for a well containing reaction mixture but without cells. The average OD at the two-hour end point for each test molecule at all concentrations in triplicate was calculated. […] As an alternate to the end point OD reading, one may use the mean rate of appearance of the reaction product (mean V), calculated from the best linear fit of the data to absorbance vs. time. […]

O=C(O)c1cc(O)c2ccccc2n1 [Kynurenic Acid, kynurenic acid]
MT-MMP activity in combination with benzathine: evince MT-MMP activity
